{
  "source": "paper PMC8149661",
  "about": "“Small-molecule inhibition of Lats kinases may promote Yap-dependent proliferation in postmitotic mammalian tissues” (Nature Communications, 2021)",
  "assay_in_all_cases": "biochemical",
  "key": {"DYRK1B": {"target": "DYRK1B (Homo sapiens, UniProt Q9Y463)", "details": "read-out: % inhibition"}, "HIPK2": {"target": "HIPK2 (Homo sapiens, UniProt Q9H2X6)", "details": "read-out: % inhibition"}, "BMP2K": {"target": "BMP2K (Homo sapiens, UniProt Q9NSY1)", "details": "read-out: % inhibition"}, "CLK1": {"target": "CLK1 (Homo sapiens, UniProt P49759)", "details": "read-out: % inhibition"}, "PKN1": {"target": "PKN1 (Homo sapiens, UniProt Q16512)", "details": "read-out: % inhibition"}, "DYRK1A": {"target": "DYRK1A (Homo sapiens, UniProt Q13627)", "details": "read-out: % inhibition"}, "PRKCQ": {"target": "PRKCQ (Homo sapiens, UniProt Q04759)", "details": "read-out: % inhibition"}, "PRKX": {"target": "PRKX (Homo sapiens, UniProt P51817)", "details": "read-out: % inhibition"}, "CDK19": {"target": "CDK19 (Homo sapiens, UniProt Q9BWU1)", "sequence (Q9BWU1 whole entry)": "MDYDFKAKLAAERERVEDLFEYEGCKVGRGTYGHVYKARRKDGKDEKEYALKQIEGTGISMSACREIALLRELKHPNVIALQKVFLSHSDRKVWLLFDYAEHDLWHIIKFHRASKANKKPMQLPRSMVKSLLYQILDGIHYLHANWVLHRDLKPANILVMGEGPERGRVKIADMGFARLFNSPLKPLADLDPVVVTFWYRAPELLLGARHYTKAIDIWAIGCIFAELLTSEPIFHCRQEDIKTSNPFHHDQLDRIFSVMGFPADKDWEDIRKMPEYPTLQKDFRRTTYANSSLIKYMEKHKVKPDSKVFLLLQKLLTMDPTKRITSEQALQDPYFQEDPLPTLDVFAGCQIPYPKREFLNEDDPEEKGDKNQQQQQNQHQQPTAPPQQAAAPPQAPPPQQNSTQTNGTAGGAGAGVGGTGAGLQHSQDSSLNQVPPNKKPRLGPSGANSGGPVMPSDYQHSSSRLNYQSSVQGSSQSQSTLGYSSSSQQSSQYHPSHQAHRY", "details": "read-out: % inhibition"}, "MAP4K4": {"target": "MAP4K4 (Homo sapiens, UniProt O95819)", "details": "read-out: % inhibition"}, "DMPK": {"target": "DMPK (Homo sapiens, UniProt Q09013)", "details": "read-out: % inhibition"}, "HIPK3": {"target": "HIPK3 (Homo sapiens, UniProt Q9H422)", "details": "read-out: % inhibition"}, "TGFBR2": {"target": "TGFBR2 (Homo sapiens, UniProt P37173)", "details": "read-out: % inhibition"}, "HIPK1": {"target": "HIPK1 (Homo sapiens, UniProt Q86Z02)", "details": "read-out: % inhibition"}, "PASK": {"target": "PASK (Homo sapiens, UniProt Q96RG2)", "details": "read-out: % inhibition"}, "ROCK2": {"target": "ROCK2 (Homo sapiens, UniProt O75116)", "details": "read-out: % inhibition"}, "PRKACB": {"target": "PRKACB (Homo sapiens, UniProt P22694)", "details": "read-out: % inhibition"}, "MAP3K7": {"target": "MAP3K7 (Homo sapiens, UniProt O43318)", "details": "read-out: % inhibition"}, "GSK3B": {"target": "GSK3B (Homo sapiens, UniProt P49841)", "details": "read-out: % inhibition"}, "PRKG2": {"target": "PRKG2 (Homo sapiens, UniProt Q13237)", "sequence (Q13237 whole entry)": "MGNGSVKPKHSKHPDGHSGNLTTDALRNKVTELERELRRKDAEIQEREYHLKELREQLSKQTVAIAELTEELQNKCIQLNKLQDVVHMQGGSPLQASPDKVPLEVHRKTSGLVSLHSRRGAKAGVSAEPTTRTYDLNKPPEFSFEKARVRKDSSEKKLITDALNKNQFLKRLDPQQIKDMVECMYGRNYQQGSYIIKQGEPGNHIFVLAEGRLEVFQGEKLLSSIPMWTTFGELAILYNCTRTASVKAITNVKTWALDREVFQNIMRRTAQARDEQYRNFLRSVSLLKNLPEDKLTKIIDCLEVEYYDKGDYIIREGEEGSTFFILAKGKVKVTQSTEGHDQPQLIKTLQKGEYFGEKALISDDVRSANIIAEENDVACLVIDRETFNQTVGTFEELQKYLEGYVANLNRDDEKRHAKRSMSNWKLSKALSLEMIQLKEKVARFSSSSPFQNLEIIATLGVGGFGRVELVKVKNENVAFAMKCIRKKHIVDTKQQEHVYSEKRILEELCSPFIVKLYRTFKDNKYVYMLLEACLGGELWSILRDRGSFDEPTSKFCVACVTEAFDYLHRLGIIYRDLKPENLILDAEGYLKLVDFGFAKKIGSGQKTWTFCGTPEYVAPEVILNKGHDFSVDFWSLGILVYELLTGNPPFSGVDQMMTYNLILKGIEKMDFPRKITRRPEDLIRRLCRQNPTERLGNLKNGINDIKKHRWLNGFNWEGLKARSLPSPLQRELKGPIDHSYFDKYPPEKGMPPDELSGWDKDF", "details": "read-out: % inhibition"}, "CDK8": {"target": "CDK8 (Homo sapiens, UniProt P49336)", "details": "read-out: % inhibition"}, "LRRK2": {"target": "LRRK2 (Homo sapiens, UniProt Q5S007)", "details": "read-out: % inhibition"}, "CDC42BPA": {"target": "CDC42BPA (Homo sapiens, UniProt Q5VT25)", "details": "read-out: % inhibition"}, "PKN2": {"target": "PKN2 (Homo sapiens, UniProt Q16513)", "details": "read-out: % inhibition"}, "PAK4": {"target": "PAK4 (Homo sapiens, UniProt O96013)", "details": "read-out: % inhibition"}, "PRKCD": {"target": "PRKCD (Homo sapiens, UniProt Q05655)", "sequence (Q05655 whole entry)": "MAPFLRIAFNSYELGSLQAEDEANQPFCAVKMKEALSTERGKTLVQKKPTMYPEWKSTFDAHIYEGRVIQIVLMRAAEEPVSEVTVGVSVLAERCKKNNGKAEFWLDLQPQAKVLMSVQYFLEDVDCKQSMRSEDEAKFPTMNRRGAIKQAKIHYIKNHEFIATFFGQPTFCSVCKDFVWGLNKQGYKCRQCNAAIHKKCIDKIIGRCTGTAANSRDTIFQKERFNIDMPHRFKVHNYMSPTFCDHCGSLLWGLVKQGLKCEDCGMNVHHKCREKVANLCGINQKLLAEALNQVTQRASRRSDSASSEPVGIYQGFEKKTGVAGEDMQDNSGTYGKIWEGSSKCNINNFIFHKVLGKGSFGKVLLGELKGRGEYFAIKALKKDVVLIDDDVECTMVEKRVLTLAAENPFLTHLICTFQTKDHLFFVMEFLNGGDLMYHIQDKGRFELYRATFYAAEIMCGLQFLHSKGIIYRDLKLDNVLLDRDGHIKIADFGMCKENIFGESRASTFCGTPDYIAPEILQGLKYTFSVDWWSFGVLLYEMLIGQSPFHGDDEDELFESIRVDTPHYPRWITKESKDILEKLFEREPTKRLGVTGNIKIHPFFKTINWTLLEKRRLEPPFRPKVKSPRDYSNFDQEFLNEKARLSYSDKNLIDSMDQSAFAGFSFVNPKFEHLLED", "details": "read-out: % inhibition"}, "CLK4": {"target": "CLK4 (Homo sapiens, UniProt Q9HAZ1)", "sequence (Q9HAZ1 whole entry)": "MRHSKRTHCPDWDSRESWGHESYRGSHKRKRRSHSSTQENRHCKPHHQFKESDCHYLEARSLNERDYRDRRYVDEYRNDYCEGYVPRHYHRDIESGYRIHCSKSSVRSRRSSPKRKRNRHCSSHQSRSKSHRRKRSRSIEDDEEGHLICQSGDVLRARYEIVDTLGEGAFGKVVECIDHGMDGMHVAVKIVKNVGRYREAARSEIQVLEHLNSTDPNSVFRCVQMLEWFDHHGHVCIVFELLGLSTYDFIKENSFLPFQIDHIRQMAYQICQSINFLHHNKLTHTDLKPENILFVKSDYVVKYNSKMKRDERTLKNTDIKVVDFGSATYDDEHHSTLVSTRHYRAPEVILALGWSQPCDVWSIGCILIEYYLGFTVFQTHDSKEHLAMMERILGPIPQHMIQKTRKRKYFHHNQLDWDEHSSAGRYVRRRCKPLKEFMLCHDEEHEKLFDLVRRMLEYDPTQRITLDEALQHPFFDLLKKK", "details": "read-out: % inhibition"}, "PRKCH": {"target": "PRKCH (Homo sapiens, UniProt P24723)", "details": "read-out: % inhibition"}, "CDC7": {"target": "CDC7 (Homo sapiens, UniProt O00311)", "sequence (O00311 whole entry)": "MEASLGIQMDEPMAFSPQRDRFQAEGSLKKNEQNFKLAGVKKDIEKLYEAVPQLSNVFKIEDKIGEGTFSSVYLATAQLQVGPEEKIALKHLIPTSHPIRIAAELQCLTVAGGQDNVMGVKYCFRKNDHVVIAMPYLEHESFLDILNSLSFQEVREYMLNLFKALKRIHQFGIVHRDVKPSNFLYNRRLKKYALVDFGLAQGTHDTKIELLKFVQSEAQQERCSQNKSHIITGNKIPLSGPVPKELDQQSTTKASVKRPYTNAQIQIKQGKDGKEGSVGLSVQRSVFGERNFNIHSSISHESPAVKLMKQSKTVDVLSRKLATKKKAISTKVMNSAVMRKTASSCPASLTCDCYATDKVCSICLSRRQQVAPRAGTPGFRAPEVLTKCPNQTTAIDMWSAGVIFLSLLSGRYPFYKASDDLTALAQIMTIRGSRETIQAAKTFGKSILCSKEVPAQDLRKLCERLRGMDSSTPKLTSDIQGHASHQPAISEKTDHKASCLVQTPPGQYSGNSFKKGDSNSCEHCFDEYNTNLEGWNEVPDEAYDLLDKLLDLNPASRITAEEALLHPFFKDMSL", "details": "read-out: % inhibition"}, "TAOK1": {"target": "TAOK1 (Homo sapiens, UniProt Q7L7X3)", "details": "read-out: % inhibition"}, "ROCK1 [1]": {"target": "T1, ROCK1 (Homo sapiens, UniProt Q13464)", "T1 sequence (Q13464 whole entry)": "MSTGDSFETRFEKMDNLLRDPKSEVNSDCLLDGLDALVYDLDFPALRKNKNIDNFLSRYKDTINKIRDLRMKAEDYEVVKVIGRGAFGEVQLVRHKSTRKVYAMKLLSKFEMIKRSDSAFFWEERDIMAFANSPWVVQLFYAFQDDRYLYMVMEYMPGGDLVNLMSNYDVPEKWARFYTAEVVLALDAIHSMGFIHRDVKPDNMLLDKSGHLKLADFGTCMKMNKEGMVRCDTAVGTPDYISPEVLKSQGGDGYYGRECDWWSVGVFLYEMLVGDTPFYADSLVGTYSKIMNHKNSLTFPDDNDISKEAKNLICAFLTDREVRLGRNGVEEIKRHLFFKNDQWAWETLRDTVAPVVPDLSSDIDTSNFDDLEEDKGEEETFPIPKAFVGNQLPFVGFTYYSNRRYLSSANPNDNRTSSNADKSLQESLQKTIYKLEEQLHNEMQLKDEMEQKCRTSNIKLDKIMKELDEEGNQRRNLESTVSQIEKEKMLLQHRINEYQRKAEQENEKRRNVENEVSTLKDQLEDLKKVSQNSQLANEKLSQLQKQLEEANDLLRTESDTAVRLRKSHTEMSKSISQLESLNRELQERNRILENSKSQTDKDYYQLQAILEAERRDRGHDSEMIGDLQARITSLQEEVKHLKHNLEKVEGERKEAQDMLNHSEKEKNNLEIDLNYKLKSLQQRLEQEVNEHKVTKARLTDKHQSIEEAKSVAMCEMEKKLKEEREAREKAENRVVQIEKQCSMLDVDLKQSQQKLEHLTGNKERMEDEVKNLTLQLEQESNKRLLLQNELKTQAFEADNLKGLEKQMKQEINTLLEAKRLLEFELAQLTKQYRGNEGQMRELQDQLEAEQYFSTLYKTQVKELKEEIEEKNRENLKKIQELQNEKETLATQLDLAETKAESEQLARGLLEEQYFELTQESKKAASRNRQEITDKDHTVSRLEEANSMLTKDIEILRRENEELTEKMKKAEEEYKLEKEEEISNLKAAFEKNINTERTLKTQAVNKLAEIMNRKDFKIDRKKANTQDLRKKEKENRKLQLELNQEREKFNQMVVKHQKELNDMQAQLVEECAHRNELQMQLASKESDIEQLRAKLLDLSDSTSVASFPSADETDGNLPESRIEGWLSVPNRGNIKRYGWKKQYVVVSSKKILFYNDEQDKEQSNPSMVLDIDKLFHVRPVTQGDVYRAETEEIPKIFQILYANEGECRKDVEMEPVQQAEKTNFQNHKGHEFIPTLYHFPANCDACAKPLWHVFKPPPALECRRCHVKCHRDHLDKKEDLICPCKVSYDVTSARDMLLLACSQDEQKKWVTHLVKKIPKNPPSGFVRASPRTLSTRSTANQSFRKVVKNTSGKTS", "details": "read-out: % inhibition"}, "CDC42BPG": {"target": "CDC42BPG (Homo sapiens, UniProt Q6DT37)", "details": "read-out: % inhibition"}, "CLK2": {"target": "CLK2 (Homo sapiens, UniProt P49760)", "details": "read-out: % inhibition"}, "DAPK3": {"target": "DAPK3 (Homo sapiens, UniProt O43293)", "details": "read-out: % inhibition"}, "NDR1": {"target": "T2, NDR1 (Homo sapiens, UniProt Q15208)", "T2 construct": "gene STK38", "T2 sequence (Q15208 whole entry)": "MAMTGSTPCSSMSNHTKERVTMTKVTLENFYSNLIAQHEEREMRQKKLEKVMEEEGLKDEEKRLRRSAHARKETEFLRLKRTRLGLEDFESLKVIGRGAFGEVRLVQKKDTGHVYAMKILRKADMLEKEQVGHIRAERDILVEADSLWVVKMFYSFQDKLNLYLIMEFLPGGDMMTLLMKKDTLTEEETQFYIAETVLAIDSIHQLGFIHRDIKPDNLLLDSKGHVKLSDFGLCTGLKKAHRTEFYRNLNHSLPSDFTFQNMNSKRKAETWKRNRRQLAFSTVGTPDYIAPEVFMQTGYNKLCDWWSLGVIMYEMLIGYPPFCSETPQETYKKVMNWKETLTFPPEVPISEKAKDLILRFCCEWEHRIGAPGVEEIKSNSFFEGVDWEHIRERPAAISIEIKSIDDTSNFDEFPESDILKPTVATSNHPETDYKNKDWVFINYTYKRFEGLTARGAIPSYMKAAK", "set-up": "functional kinase inhibition IC50 (Reaction Biology)"}, "PKCepsilon": {"target": "T3, PKCepsilon (Homo sapiens, UniProt Q02156)", "T3 construct": "gene PRKCE", "set-up": "functional kinase inhibition IC50 (Reaction Biology)"}, "PKA": {"target": "T4, PKA (Homo sapiens, UniProt P17612)", "T4 construct": "gene PRKACA", "set-up": "functional kinase inhibition IC50 (Reaction Biology)"}, "ROCK1 [2]": {"target": "T1, ROCK1", "set-up": "functional kinase inhibition IC50 (Reaction Biology)"}},
  "data": [
    {"compound": "O=C(N=c1sccn1Cc1ccccc1)c1c[nH]c2ncccc12", "note": "[TRULI, N-(3-benzylthiazol-2(3H)-ylidene)-1H-pyrrolo[2,3-b]pyridine-3-carboxamide]", "values": [
      {"measurement": "inhibition at 1 µM", "setting": "DYRK1B", "result": 81.5, "unit": "%"},
      {"measurement": "inhibition at 1 µM", "setting": "HIPK2", "result": 94.2, "unit": "%"},
      {"measurement": "inhibition at 1 µM", "setting": "BMP2K", "result": 86.3, "unit": "%"},
      {"measurement": "inhibition at 1 µM", "setting": "CLK1", "result": 78.1, "unit": "%"},
      {"measurement": "inhibition at 1 µM", "setting": "PKN1", "result": 77.7, "unit": "%"},
      {"measurement": "inhibition at 1 µM", "setting": "DYRK1A", "result": 85.8, "unit": "%"},
      {"measurement": "inhibition at 1 µM", "setting": "PRKCQ", "result": 99.2, "unit": "%"},
      {"measurement": "inhibition at 1 µM", "setting": "PRKX", "result": 88.1, "unit": "%"},
      {"measurement": "inhibition at 1 µM", "setting": "CDK19", "result": 90.2, "unit": "%"},
      {"measurement": "inhibition at 1 µM", "setting": "MAP4K4", "result": 77.5, "unit": "%"},
      {"measurement": "inhibition at 1 µM", "setting": "DMPK", "result": 97.9, "unit": "%"},
      {"measurement": "inhibition at 1 µM", "setting": "HIPK3", "result": 95.8, "unit": "%"},
      {"measurement": "inhibition at 1 µM", "setting": "TGFBR2", "result": 81.3, "unit": "%"},
      {"measurement": "inhibition at 1 µM", "setting": "HIPK1", "result": 86.1, "unit": "%"},
      {"measurement": "inhibition at 1 µM", "setting": "PASK", "result": 85.8, "unit": "%"},
      {"measurement": "inhibition at 1 µM", "setting": "ROCK2", "result": 84.1, "unit": "%"},
      {"measurement": "inhibition at 1 µM", "setting": "PRKACB", "result": 92.9, "unit": "%"},
      {"measurement": "inhibition at 1 µM", "setting": "MAP3K7", "result": 74, "unit": "%"},
      {"measurement": "inhibition at 1 µM", "setting": "GSK3B", "result": 92.7, "unit": "%"},
      {"measurement": "inhibition at 1 µM", "setting": "PRKG2", "result": 79.1, "unit": "%"},
      {"measurement": "inhibition at 1 µM", "setting": "CDK8", "result": 88.8, "unit": "%"},
      {"measurement": "inhibition at 1 µM", "setting": "LRRK2", "result": 81.3, "unit": "%"},
      {"measurement": "inhibition at 1 µM", "setting": "CDC42BPA", "result": 97.2, "unit": "%"},
      {"measurement": "inhibition at 1 µM", "setting": "PKN2", "result": 89.7, "unit": "%"},
      {"measurement": "inhibition at 1 µM", "setting": "PAK4", "result": 83.4, "unit": "%"},
      {"measurement": "inhibition at 1 µM", "setting": "PRKCD", "result": 78, "unit": "%"},
      {"measurement": "inhibition at 1 µM", "setting": "CLK4", "result": 102, "unit": "%"},
      {"measurement": "inhibition at 1 µM", "setting": "PRKCH", "result": 90.4, "unit": "%"},
      {"measurement": "inhibition at 1 µM", "setting": "CDC7", "result": 99.1, "unit": "%"},
      {"measurement": "inhibition at 1 µM", "setting": "TAOK1", "result": 76.4, "unit": "%"},
      {"measurement": "inhibition at 1 µM", "setting": "ROCK1 [1]", "result": 79.2, "unit": "%"},
      {"measurement": "inhibition at 1 µM", "setting": "CDC42BPG", "result": 83.7, "unit": "%"},
      {"measurement": "inhibition at 1 µM", "setting": "CLK2", "result": 92.8, "unit": "%"},
      {"measurement": "inhibition at 1 µM", "setting": "DAPK3", "result": 77.1, "unit": "%"},
      {"measurement": "IC50", "setting": "NDR1", "result": 1000, "unit": "nM"},
      {"measurement": "IC50", "setting": "PKCepsilon", "result": 14, "unit": "nM"},
      {"measurement": "IC50", "setting": "PKA", "result": 60, "unit": "nM"},
      {"measurement": "IC50", "setting": "ROCK1 [2]", "result": 88, "unit": "nM"}
    ]}
  ]
}
